According to patent publication US20200138921A1, “METHODS OF PREVENTING AND TREATING DISEASES CHARACTERIZED BY SYNAPTIC DYSFUNCTION AND NEURODEGENERATION INCLUDING ALZHEIMER'S DISEASE” (The Trustees of Columbia University in the City of New York, priority 2017, published 2020):

Key:
Format in all cases: cell-based, rat
[1] = test system: Ube3A; assay: Immunoprecipitation of HA-Ube3A and phospho-tyrosine immunoblot in B35 cells; conditions: B35 cells pre-treated with STI-571 for 1 hour prior to oAβ
Procedure: (§1) Hippocampal neuron cultures from both male and female rat embryos (E17-18) were prepared following a slightly modified version of the method of Brewer et al. 1996. Hippocampal neurons were kept in culture at 37° C. with 5% CO2 in Neurobasal medium (ThermoFisher) with B27 (ThermoFisher) supplement and Glutamax (ThermoFisher) and plated at a density of 2.5×10^5 cell/ml on dishes coated with poly-D-lysine (ThermoFisher). For the experiments, neurons were used after 14-21 days in vitro (DIV). Rat neuroblastoma B35 cells were cultured and maintained in DMEM (ThermoFisher) supplemented with 10% fetal bovine serum (FBS; Invitrogen) and Glutamax (ThermoFisher).
Cells were collected and homogenized with IP lysis buffer (ThermoFisher) supplemented with Halt protease and phosphatase inhibitor (ThermoFisher). Cell extracts were incubated overnight at 4° C. with 1.0 μg HA antibody (Cell Signaling) or mouse IgG (Cell Signaling) as a negative control Immunocomplexes were incubated with magnetic beads covalently coated with protein G (Invitrogen) on a rotator for 2 hours, at 4° C. The beads were then pelleted with a magnet and washed 3 times with 1× cell lysis buffer (Cell Signaling) supplemented with complete mini protease inhibitor mixture (Roche). The immunocomplexes were resuspended in cell lysis buffer, LDS-sample buffer (Invitrogen), […] dithiothreitol (DTT), and analyzed by Western blotting. […]

[2] = test system: Ube3A; assay: Ube3A protein degradation in B35 cells (cycloheximide chase); conditions: pre-treatment with STI
Procedure: FIG. 5A is a graph showing the quantification of Western blots of the levels of Ube3A and GAPDH (as house-keeping protein) of B35 cells treated with cycloheximide (CHX) or CHX and oAβ for 4, 8 and 16 hours. […] Graphs represent mean values and standard deviation. Significance determined by one-way ANOVA followed by Tukey Post Hoc multiple comparisons.

[3] = test system: RhoA-GTP; assay: Rho-GTPase activity pull-down assay in hippocampal neurons; conditions: siRNA 24 hours prior to oAβ for 8 hours
Procedure: Rho-GTPase pull-down assays were performed following the manufacturer's protocol (Cytoskeleton, Inc.). Briefly, cells were washed once with ice-cold PBS and lysed with RIPA/M-PER buffer (1:1; ThermoFisher). Lysates were incubated on ice for 5 minutes, and centrifuged (12,000 g) for 5 minutes. 30 μl was used for input and the remaining lysates were incubated with Rhotekin-RBD (RhoA) or PAK-RBD (Rac1) protein beads (25 μl) by rotating for 1 hour at 4° C. Beads were washed with ice-cold PBS (500 μl, 3×) and collected, and bound proteins were eluted with 1× sample buffer (30 μl). Input and eluted samples were then analyzed by gel electrophoresis and Western blotting using either a RhoA or Rac1-specific antibody.
To test whether increasing Ube3A could rescue the effects of oAβ, cultured primary hippocampal neurons (14 DIV) were pretreated with 300 nM of TOP or control PBS. At day 3 the cells were treated with oligomeric Aβ for 6 hours and whole cell lysates prepared for Western blot analysis of Ube3A protein levels and levels of active GTPase levels including RhoA-GTP, Rac1-GTP and Cdc42-GTP.

[4] = test system: primary hippocampal neurons; assay: Dendritic spine density in cultured hippocampal neurons (DiOlistic labeling); conditions: siRNA pre-treatment, oAβ 24 hours
Procedure: The protocol for diolistic labeling of neurons was adapted from Gan et al. 2000 and Gan et al. 2009. Briefly, 100 mg of tungsten particles (1.1 μm diameter; Bio-Rad) were thoroughly precipitated with 5.0 mg of lipophilic dye (DiI; ThermoFisher) and dissolved in 100 μl of methylene chloride. Dye-coated particles were shot 2-3 times into the cells using the Helios gene gun system (Bio-Rad) and left in 0.1 M PBS overnight to allow dye diffusion along neuronal processes. Cells were post-fixed with 4% paraformaldehyde (Pierce) for 1 hour to preserve staining, then mounted onto glass slides using Gel Mount (Biomeda) and stored at 4° C. in the dark.
Labeled neurons were imaged using the Laser Scanning Microscope (LSM) 510 Meta confocal microscope (Zeiss), equipped with 40×1.3 NA and 100×1.4 NA oil-immersion objectives. The NIH Image software program ImageJ was used the quantify diolistic-labeled cultured neurons. An average of 12 compressed images (20 μm thick) consisting of pyramidal neurons were quantified for each treatment. Spines were counted with NeuronStudio software in a blinded manner and spine density was represented in number of spine per μm dendritic length. Statistical analysis was performed using the statistics package GraphPad Prism.
To further test whether increasing Ube3A could rescue the effects of oAβ, cultured primary hippocampal neurons (14 DIV) were pretreated with 300 nM of TOP or control PBS. The neurons were then treated with oAβ for 24 hours, and whole cell lysates prepared for Western blot analysis, or fixed for microscopy.

[5] = test system: Ephexin-5; assay: Western blot of Ephexin-5 in cultured primary hippocampal neurons; conditions: hippocampal neurons, Penetratin-1-linked siRNA for 24 hours
Procedure: as §1
Whole frozen mouse hippocampi, human brain specimens, and cultured cells were homogenized in RIPA buffer (ThermoFisher) supplemented with protease and phosphatase inhibitor cocktail (ThermoFisher), using a Teflon dounce homogenizer and centrifuged at 14,000 rpm for 10 minutes at 4° C. Supernatants were collected, normalized by BCA assay (ThermoFisher), and prepared for loading using sample buffer (SB) 4× (ThermoFisher) and dithiothreitol (DTT) 10× (ThermoFisher).
Cultured primary hippocampal neurons (14 DIV) were treated with 300 nM of a topoisomerase type I inhibitor, topotecan (TOP) or a vehicle control as described in Huang et al. 2012. Some cells were treated for 24 hours and some for 72 hours. All cells were harvested and whole cell lysates prepared for Western blot analysis of Ube3A and Ephixin-5.

Row | Compound | Ube3A phosphorylation by oAβ [1] | oAβ-induced decrease in Ube3A protein [2] | oAβ-induced upregulation of RhoA activity [3] | loss of dendritic spine in neurons treated with oAβ [4] | levels of Ephexin-5 [5]
1 | Cc1ccc(NC(=O)c2ccc(CN3CCN(C)CC3)cc2)cc1Nc1nccc(-c2cccnc2)n1 [STI-571] | complete abolishment | completely blocked |  |  | 
2 | Penetratin-1-linked siRNA: Ephexin-5 siRNA (SEQ ID NO: 1 and 2) cross-linked via a Cys-Cys bond to the delivery peptide Penetratin-1 (chain 1 GUCCUUUCUCCGUGUAUGUUU; chain 2 ACAUACACGGAGAAAGGACUU; Penetratin-1 peptide attached via Cys-Cys disulfide, further chemistry not given here) |  |  | completely blocked | completely rescued | depleted
